According to article PMC10791743, “Selective CK1α degraders exert antiproliferative activity against a broad range of human cancer cell lines” (Nature Communications, 2024):
Where “and” joins values, the source holds several entries; their conditions need not be identical. Equal values may be shown once.

System: PER117 cells
Assay: CTG viability, PER117
Format: cell-based, human
Settings: for IC50: PER117 cells, replicate values
Description: After establishing the potency and selectivity of our lead CK1α degraders, we investigated their effect on a panel of AML and ALL cell lines (Fig. 3a).
The primary screen was performed in 384-well format using the CellTiter Glo (CTG) luminescent cell viability assay (Promega) as previously described. 3630 compounds from the St. Jude proprietary molecular glue library were screened against 9 human cancer cell lines (HD-MB03, MB004, MB002, MHH-CALL4, MOLM-13, TF-1, HEL, OCI-AML3, AML193). Each cell line was cultured in the complete medium recommended by the vendor and seeded in Corning 8804 BC white 384-well assay plates at densities of 1000, 1000, 1500, 7500, 1250, 156, 625, 1250, 1250 cells per well for HD-MB03, MB004, MB002, MHH-CALL4, MOLM-13, TF-1, HEL, OCI-AML, AML193, respectively. After overnight incubation at 37 °C in a humidified 5% CO2 incubator, cells were treated with compounds in dose–response format using a Pintool on a Biomek FX^P Laboratory Automation Workstation (Beckman Coulter). After 72 h of incubation, cell proliferation was assessed using a CellTiter-Glo (CTG) luminescent cell viability assay (Promega) according to the manufacturer’s instructions. Luminescence signal was measured using an EnVision plate reader (PerkinElmer).
HD-MB03 cell line was obtained from Drs. Milde, Witt and Deubzer[52]. HD-MB03 and MB004 cells were grown in a neurobasal medium supplemented with glutamine, streptomycin, penicillin, B27, EGF, bFGF, and heparin as previously described. MB002 and MB004 cells were obtained from Dr Yoon-Jae Cho[54]. MB002 cells were cultured in 80% neurobasal medium supplemented with glutamine, streptomycin, penicillin, B27, and 20% conditioned media from previous passages; EGF, bFGF, and heparin were also added to the medium. MHH-CALL4, NALM-16, MHH-CALL-2 cells were obtained from the German Collection of Microorganisms and Cell Cultures GmbH (DSMZ, Germany). PER-117 cells were obtained from Telethon Kids Institute (Perth, Australia). The cells were cultured in RPMI1640 medium supplemented with 10% FBS (Hyclone), Penicillin/Streptomycin (100 units/mL), and Glutamine (100 µM) except for MHH-CALL-2 cells where 20% FBS were used. MOLM-13 cells were obtained from DSMZ (ACC 554) and cultured in RPMI-1640 media (Gibco) supplemented with 20% FBS (R&D Systems) and 100 U/ml penicillin-streptomycin (Gibco). HNT-34 cells were purchased from DSMZ (ACC 600) and cultured in RPMI-1640 media supplemented with 20% FBS and 100 U/ml penicillin-streptomycin. Kasumi-3 cells were purchased from ATCC (CRL-2725) and cultured in RPMI-1640 media supplemented with 20% FBS and 100 U/ml penicillin-streptomycin. UCSD-AML1 cells were purchased from DSMZ (ACC 691) and cultured in RPMI-1640 media supplemented with 20% FBS, 100 U/ml penicillin–streptomycin, and 10 ng/ml human GM-CSF (PeproTech). […] OCI-AML3 cells were purchased from DSMZ (ACC 690) and cultured in Alpha-MEM media (Invitrogen) supplemented with 20% FBS and 100 U/ml penicillin–streptomycin. HEL cells were obtained from Dr. Charles Mullighan and cultured in RPMI-1640 media supplemented with 10% FBS and 100 U/ml penicillin-streptomycin. AML193 cells were purchased from DSMZ (ACC 549) and cultured in IMDM supplemented with 5% FBS, 100 U/ml penicillin–streptomycin, Insulin–Transferrin–Selenium (ITS-G, Gibco), and 5 ng/ml human GM-CSF. Cell identity was confirmed by STR profiling using PowerPlex® Fusion System (Promega).

Structure (SMILES): Cc1cccc(C(=O)Nc2ccc3c(c2)CN(C2CCC(=O)NC2=O)C3=O)c1 (centres unmarked) [SJ0040]
- IC50 (Homo sapiens): 5 nM
- IC50: 4.7 nM and 5.3 nM

Structure (SMILES): O=C1CCC(N2Cc3cc(Nc4noc5ccccc45)ccc3C2=O)C(=O)N1 (centres unmarked) [SJ3149]
- Activity against PER117 cells (CTG): sub-nanomolar activity
- IC50 (Homo sapiens): 0.8 nM
- IC50: 1.1 nM
